Results reported in PMC6934184, “Selective DNA-PKcs inhibition extends the therapeutic index of localized radiotherapy and chemotherapy” (The Journal of Clinical Investigation, 2019).

Target: T1, ULK2 (Homo sapiens, UniProt Q8IYT8)
T1 construct: purchased Thermo Fisher Scientific (Life Technologies) SelectScreen
Assay: SelectScreen LanthaScreen
Type: binding
Details: read-out: % displacement
How it was run: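 SelectScreen broad panel; activity (Z'LYTE, Adapta) plus binding formats. ATP: Km app for CSF1R Z'LYTE; 10 for CAMK1 Adapta. Readout = % per kinase.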

T1 sequence (Q8IYT8 whole entry): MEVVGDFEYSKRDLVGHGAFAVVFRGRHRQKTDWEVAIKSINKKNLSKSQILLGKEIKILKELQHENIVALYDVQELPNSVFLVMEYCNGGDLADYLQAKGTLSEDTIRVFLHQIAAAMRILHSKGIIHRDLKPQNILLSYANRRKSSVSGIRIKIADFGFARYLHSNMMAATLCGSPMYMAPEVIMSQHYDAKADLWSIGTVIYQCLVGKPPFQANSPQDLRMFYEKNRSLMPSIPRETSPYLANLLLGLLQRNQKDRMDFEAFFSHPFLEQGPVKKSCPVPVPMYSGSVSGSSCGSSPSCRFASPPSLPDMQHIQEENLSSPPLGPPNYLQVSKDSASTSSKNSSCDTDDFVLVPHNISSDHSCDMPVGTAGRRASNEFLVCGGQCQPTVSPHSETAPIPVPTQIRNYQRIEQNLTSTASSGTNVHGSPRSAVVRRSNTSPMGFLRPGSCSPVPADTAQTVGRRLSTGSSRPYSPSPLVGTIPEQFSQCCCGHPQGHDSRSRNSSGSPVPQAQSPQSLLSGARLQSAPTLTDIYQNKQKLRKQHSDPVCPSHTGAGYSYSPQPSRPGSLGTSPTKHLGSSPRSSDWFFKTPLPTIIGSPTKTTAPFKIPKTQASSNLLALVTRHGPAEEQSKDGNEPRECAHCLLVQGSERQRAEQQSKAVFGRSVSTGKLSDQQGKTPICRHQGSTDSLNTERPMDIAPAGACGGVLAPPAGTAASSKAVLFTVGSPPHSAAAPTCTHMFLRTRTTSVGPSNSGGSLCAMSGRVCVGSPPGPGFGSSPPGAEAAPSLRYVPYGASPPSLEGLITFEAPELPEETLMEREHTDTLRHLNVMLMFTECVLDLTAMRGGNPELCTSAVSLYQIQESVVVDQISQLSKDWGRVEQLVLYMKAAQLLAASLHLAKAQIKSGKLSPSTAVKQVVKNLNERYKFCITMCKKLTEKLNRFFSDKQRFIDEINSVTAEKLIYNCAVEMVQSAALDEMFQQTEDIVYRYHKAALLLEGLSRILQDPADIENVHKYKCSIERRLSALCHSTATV

Q: Which inhibition at 1 µM does the source give for `CN(C(=O)CN1CCOCC1)c1ccc2sc3c(-c4cccc5c(=O)cc(N6CC7CCC(C6)O7)oc45)cccc3c2c1` [NU5455] here?
A: Its inhibition at 1 µM is 0.9%.
